pIC50: −log10 of the molar value.
How the values were obtained:
ROCK2 = ROCK2 (UniProt O75116); assay: Inhibition of ROCK2 Kinase Activity
MAPK14 = MAPK14 (UniProt Q16539); assay: Inhibition of MAPK14 Kinase Activity
EGFR = EGFR (UniProt P00533)
Sequence of EGFR (P00533 whole entry, looked up): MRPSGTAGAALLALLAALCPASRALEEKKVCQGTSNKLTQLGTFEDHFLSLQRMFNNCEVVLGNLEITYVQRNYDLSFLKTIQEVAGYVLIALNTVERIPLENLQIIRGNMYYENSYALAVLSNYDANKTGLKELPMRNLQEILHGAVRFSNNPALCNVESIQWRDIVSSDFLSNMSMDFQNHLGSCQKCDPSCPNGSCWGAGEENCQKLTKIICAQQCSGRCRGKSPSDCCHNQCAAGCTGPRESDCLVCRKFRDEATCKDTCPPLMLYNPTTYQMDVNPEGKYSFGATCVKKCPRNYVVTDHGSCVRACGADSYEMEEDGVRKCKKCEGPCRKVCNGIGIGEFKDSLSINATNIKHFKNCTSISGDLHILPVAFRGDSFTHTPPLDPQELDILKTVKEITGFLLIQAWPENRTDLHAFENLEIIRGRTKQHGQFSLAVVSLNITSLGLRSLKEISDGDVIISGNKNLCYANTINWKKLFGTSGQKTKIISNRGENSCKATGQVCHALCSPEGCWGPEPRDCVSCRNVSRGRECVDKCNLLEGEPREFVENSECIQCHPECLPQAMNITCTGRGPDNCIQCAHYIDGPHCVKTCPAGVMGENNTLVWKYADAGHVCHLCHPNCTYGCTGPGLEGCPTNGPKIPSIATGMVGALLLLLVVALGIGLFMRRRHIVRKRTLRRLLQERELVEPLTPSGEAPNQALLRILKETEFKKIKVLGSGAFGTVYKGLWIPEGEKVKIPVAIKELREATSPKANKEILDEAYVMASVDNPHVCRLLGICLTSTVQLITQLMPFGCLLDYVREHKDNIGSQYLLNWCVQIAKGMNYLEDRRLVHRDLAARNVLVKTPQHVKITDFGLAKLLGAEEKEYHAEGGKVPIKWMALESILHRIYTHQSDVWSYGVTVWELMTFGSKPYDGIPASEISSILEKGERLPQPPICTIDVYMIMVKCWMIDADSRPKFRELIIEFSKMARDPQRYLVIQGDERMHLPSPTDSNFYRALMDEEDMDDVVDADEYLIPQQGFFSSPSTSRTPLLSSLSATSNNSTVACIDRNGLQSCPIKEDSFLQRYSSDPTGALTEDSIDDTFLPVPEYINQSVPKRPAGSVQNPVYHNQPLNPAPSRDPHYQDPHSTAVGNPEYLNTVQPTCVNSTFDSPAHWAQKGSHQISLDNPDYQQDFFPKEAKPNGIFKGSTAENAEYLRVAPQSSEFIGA

Sequence of ROCK2 (O75116 whole entry, looked up): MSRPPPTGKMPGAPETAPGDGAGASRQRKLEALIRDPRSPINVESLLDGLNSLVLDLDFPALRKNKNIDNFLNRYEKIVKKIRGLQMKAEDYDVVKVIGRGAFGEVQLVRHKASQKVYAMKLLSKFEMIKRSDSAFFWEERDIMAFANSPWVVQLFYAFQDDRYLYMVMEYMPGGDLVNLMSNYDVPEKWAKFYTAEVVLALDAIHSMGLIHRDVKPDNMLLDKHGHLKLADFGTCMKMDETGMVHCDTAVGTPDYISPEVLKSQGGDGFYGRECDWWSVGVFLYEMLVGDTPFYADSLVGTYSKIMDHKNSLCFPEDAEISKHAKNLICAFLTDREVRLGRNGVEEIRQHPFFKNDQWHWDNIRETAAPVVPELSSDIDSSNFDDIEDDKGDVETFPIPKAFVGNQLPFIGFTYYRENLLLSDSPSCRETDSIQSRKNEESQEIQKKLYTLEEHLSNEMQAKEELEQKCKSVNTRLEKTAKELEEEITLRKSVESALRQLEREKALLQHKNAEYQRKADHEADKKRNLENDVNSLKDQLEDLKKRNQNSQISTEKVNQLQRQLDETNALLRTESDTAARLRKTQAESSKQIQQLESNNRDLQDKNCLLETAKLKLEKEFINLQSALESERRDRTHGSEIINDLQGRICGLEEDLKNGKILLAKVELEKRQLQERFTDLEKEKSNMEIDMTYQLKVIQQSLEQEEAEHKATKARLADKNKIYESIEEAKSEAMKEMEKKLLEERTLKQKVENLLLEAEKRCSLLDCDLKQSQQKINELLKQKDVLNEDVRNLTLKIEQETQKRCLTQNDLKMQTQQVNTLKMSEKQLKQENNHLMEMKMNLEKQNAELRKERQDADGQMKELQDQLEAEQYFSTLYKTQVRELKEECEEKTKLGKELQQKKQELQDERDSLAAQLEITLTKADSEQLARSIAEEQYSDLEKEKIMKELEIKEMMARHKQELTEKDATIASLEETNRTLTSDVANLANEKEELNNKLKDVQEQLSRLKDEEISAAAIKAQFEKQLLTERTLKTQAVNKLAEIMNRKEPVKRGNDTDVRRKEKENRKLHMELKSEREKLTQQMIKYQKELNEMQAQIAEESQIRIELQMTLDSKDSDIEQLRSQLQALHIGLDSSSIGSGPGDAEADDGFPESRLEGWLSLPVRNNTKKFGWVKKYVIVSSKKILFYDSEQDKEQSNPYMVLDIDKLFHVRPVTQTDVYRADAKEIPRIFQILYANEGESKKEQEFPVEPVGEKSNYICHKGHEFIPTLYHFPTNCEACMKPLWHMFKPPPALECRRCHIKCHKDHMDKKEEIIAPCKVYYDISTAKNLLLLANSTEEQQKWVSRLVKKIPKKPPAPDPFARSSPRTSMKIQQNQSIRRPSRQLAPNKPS
Sequence of MAPK14 (Q16539 whole entry, looked up): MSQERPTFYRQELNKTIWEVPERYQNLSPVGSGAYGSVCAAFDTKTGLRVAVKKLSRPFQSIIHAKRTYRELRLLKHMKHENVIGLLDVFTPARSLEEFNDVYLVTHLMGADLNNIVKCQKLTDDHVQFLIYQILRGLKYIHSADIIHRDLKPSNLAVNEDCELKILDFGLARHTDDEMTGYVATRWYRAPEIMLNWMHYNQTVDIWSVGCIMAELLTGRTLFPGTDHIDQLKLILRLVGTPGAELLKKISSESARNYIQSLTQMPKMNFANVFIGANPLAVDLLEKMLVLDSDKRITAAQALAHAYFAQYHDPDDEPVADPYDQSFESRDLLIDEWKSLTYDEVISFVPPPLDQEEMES

Cc1cncc2cccc(S(=O)(=O)N3CCCNCC3)c12
pIC50 (ROCK2): 7.01

Cc1cncc2cccc(S(=O)(=O)N3CCCNC[C@@H]3C)c12
pIC50 (MAPK14): 4.00

C[C@H]1CNCCCN1S(=O)(=O)c1cccc2cncc(Br)c12
pIC50 (ROCK2): 8.23

Cc1cncc2cccc(S(=O)(=O)N3CCCNC[C@@H]3C(C)C)c12
pIC50 (ROCK2): 6.09

CC(C)(N)[C@H]1CC[C@H](C(=O)Nc2ccncc2)CC1
pIC50 (ROCK2): 6.79
pIC50 (EGFR): 4.00
pIC50 (MAPK14): < 4.00

C[C@H]1CN(C(=O)CN)CCCN1S(=O)(=O)c1cccc2cncc(Br)c12
pIC50 (ROCK2): 7.37

Cc1cncc2cccc(S(=O)(=O)N3CCCNC(C)C3)c12 (stereo unspecified)
pIC50 (ROCK2): 7.09

CC[C@H]1CNCCCN1S(=O)(=O)c1cccc2cncc(C)c12
pIC50 (ROCK2): 6.95

NCC(=O)N1CCCN(S(=O)(=O)c2cccc3cnccc23)CC1
pIC50 (ROCK2): 6.28

Cc1cncc2cccc(S(=O)(=O)N3CCNCC(C)C3)c12 (stereo unspecified)
pIC50 (ROCK2): 6.97

C[C@H]1CNCCCN1S(=O)(=O)c1cccc2cncc(C#N)c12
pIC50 (ROCK2): 6.37

Cc1cncc2cccc(S(=O)(=O)N3CCNC(C)CC3)c12 (stereo unspecified)
pIC50 (ROCK2): 6.91

C#Cc1cncc2cccc(S(=O)(=O)N3CCCNC[C@@H]3C)c12
pIC50 (ROCK2): 8.22

Cc1cncc2cccc(S(=O)(=O)N3CCCN(C(=O)CN)C[C@@H]3C)c12
pIC50 (ROCK2): 7.93

Cc1cncc2cccc(S(=O)(=O)N3CCCN(C(=O)CN)CC3)c12
pIC50 (ROCK2): 7.42

C[C@H]1CNCCCN1S(=O)(=O)c1cccc2cncc(O)c12
pIC50 (ROCK2): 5.56

CCc1cncc2cccc(S(=O)(=O)N3CCCNC[C@@H]3C)c12
pIC50 (ROCK2): 6.18

C#Cc1cncc2cccc(S(=O)(=O)N3CCCN(C(=O)CN)C[C@@H]3C)c12
pIC50 (ROCK2): 7.37

C[C@H]1CNCCCN1S(=O)(=O)c1cccc2cncc(Cl)c12
pIC50 (ROCK2): 7.91

Source: the Kinase Knowledgebase extract (Sharma et al. 2016)
